# Patent publication US20120196854A1, “PHARMACEUTICAL COMPOSITION COMPRISING AROMATIC HETEROCYCLIC COMPOUND” (Kyowa Hakko Kirin Co., Ltd., priority 2009, published 2012)
# Assays:
# [1] = tested on: PGD2 production in mouse ear; assay: Inhibitory effect on PGD2 production in mouse ear caused by allergic reaction; assay type: in vivo; conditions: 10 mg/kg orally, 1 hour before inducing antigen-antibody reaction; BALB/c mice
# Description: A test of PGD2 production in the mouse ear caused by allergic reaction was conducted according to the evaluation method of passive cutaneous anaphylaxis in the mouse ear by Inagaki et al. (Int.Arch.AllergyAppl. Immunol., 1988, 86 (3), 325-30) with some alteration. […]
# One hour after the induction of antigen-antibody reaction, the mice were killed by cervical dislocation and the ears were cut off with scissors. […] The harvested pieces of ear tissue were immediately frozen in liquid nitrogen, and preserved at −80° C. until measurement of the quantity of PGD2.
# The quantity of PGD2 was determined in the following manner. […]
# [2] = tested on: antigen-induced nasal congestion in rats; assay: Effect on antigen-induced nasal congestion in rats; assay type: in vivo, rat; conditions: 10 mg/kg orally, 1 hour before nasal antigen; OVA-sensitized BN rats
# Description: Six-week-old male BN/CrljCrlj SPF/VAF rats were purchased from Charles River Japan (Hino, Kanagawa) and used for experiments. Equal amounts of a 0.4 mg/mL ovalbumin/saline solution (OVA: Grade III, Cat. No. A-5378, Sigma-Aldrich, St. Louis, Mo., USA) and a 20 mg/mL suspension of aluminum hydroxide (alum: Cat. No. 014-01925, Wako Pure Chemical Industries) in saline were mixed to give a sensitizing fluid. First, a suspension of inactivated killed pertussis bacteria (Cat. No. 15330-91, Nacalai Tesque, Tokyo) was doubly diluted with saline. The diluted suspension was subcutaneously administered on the back of each rat at a dose of 0.1 mL (containing 10 billion bacterial cells) per rat, and immediately after that, the sensitizing fluid was intraperitoneally administered at a dose of 1 mL per rat. […]
# The nasal congestion was evaluated based on the elevation of the intranasal pressure determined in the following manner. […] The pressure inside the nasal cavity was detected using a pressure transducer branched from the end of the cannula for measurement, and analyzed using Win-PULMOS-III (M.I.P.S. Inc., Osaka). The pressure inside the nasal cavity was measured for 3 minutes immediately after the connection to the cannula for measurement and the artificial ventilator, and the data was calculated for a 3-minute average.
structure (smiles),measurement,setting,value
"O=C(O)c1cc(-c2ccco2)nc2ccc3nn(-c4ccccc4)nc3c12 [Compound 133, 7-(furan-2-yl)-2-phenyl-2H-[1,2,3]triazolo[4,5-f]quinoline-9-carboxylic acid]",inhibition of PGD2 production in mouse ear caused by allergic reaction,[1],88%
same,inhibition of antigen-induced nasal congestion (intranasal pressure),[2],55%
